Measurements reported in ChEMBL document CHEMBL4765244, “Synthesis, bioconversion, pharmacokinetic and pharmacodynamic evaluation of N-isopropyl-oxy-carbonyloxymethyl prodrugs of CZh-226, a potent and selective PAK4 inhibitor” (Eur J Med Chem, 2020).

How the values were obtained:
[1] = Prodrug conversion in human plasma assessed as release of active metabolite (R)-(6-chloro-4-(5-cyclopropyl-1H-pyrazol-3-ylamino)quinazolin-2-yl)(3-methylpiperazin-1-yl)methanone hydrochloride measured within 120 mins at 37 degC by HPLC analysis; assay type: ADME, cell-free; conditions: 2 h
[2] = Chemical stability of the compound in pH 1.2 simulated gastric fluid buffer assessed as compound remaining measured after 2 hrs by HPLC analysis; assay type: physicochemical
[3] = Stability of the compound in human plasma assessed as compound remaining measured within 120 mins at 37 degC by HPLC analysis; assay type: ADME, cell-free; conditions: read-out: Stabilty
[4] = Chemical stability of the compound in pH 6.8 simulated intestinal fluid assessed as compound remaining measured after 2 hrs by HPLC analysis; assay type: physicochemical
[5] = Stability of the compound in rat liver S9 fraction assessed as compound remaining measured after 60 mins at 37 degC by LC-MS/MS analysis; assay type: ADME, subcellular; conditions: read-out: Stabilty
[6] = Chemical stability of the compound in pH 7.4 PBS buffer assessed as compound remaining measured after 2 hrs by HPLC analysis; assay type: physicochemical; conditions: read-out: Stabilty
[7] = AUC in Wistar rat assessed as (R)-(6-chloro-4-(5-cyclopropyl-1H-pyrazol-3-ylamino)quinazolin-2-yl)(3-methylpiperazin-1-yl)methanone hydrochloride at 13.84 mg/kg, po measured upto 24 hrs by LC/MS/MS analysis; assay type: ADME, organism-based; design: route oral, dose 13.84 mg/kg, time <=24; conditions: in vivo
[8] = AUC (0 to infinity) in Wistar rat assessed as (R)-(6-chloro-4-(5-cyclopropyl-1H-pyrazol-3-ylamino)quinazolin-2-yl)(3-methylpiperazin-1-yl)methanone hydrochloride at 13.84 mg/kg, po measured upto 24 hrs by LC/MS/MS analysis; assay type: ADME, organism-based; design: route oral, dose 13.84 mg/kg, time <=24; conditions: in vivo
[9] = Cmax in Wistar rat assessed as (R)-(6-chloro-4-(5-cyclopropyl-1H-pyrazol-3-ylamino)quinazolin-2-yl)(3-methylpiperazin-1-yl)methanone hydrochloride at 13.84 mg/kg, po measured upto 24 hrs by LC/MS/MS analysis; assay type: ADME, organism-based; design: route oral, dose 13.84 mg/kg, time <=24; conditions: in vivo
[10] = Half life in Wistar rat assessed as (R)-(6-chloro-4-(5-cyclopropyl-1H-pyrazol-3-ylamino)quinazolin-2-yl)(3-methylpiperazin-1-yl)methanone hydrochloride at 13.84 mg/kg, po measured upto 24 hrs by LC/MS/MS analysis; assay type: ADME, organism-based; conditions: in vivo
[11] = Tmax in Wistar rat assessed as (R)-(6-chloro-4-(5-cyclopropyl-1H-pyrazol-3-ylamino)quinazolin-2-yl)(3-methylpiperazin-1-yl)methanone hydrochloride at 13.84 mg/kg, po measured upto 24 hrs by LC/MS/MS analysis; assay type: ADME, organism-based; conditions: in vivo
[12] = Half life in Wistar rat assessed as (R)-(6-chloro-4-(5-cyclopropyl-1H-pyrazol-3-ylamino)quinazolin-2-yl)(3-methylpiperazin-1-yl)methanone hydrochloride at 12.43 mg/kg, po measured upto 24 hrs by LC/MS/MS analysis; assay type: ADME, organism-based; conditions: in vivo
[13] = Tmax in Wistar rat assessed as (R)-(6-chloro-4-(5-cyclopropyl-1H-pyrazol-3-ylamino)quinazolin-2-yl)(3-methylpiperazin-1-yl)methanone hydrochloride at 12.43 mg/kg, po measured upto 24 hrs by LC/MS/MS analysis; assay type: ADME, organism-based; conditions: in vivo
[14] = AUC in Wistar rat assessed as (R)-(6-chloro-4-(5-cyclopropyl-1H-pyrazol-3-ylamino)quinazolin-2-yl)(3-methylpiperazin-1-yl)methanone hydrochloride at 12.43 mg/kg, po measured upto 24 hrs by LC/MS/MS analysis; assay type: ADME, organism-based; design: route oral, dose 12.43 mg/kg, time <=24; conditions: in vivo
[15] = Cmax in Wistar rat assessed as (R)-(6-chloro-4-(5-cyclopropyl-1H-pyrazol-3-ylamino)quinazolin-2-yl)(3-methylpiperazin-1-yl)methanone hydrochloride at 12.43 mg/kg, po measured upto 24 hrs by LC/MS/MS analysis; assay type: ADME, organism-based; design: route oral, dose 12.43 mg/kg, time <=24; conditions: in vivo
[16] = AUC (0 to infinity) in Wistar rat assessed as (R)-(6-chloro-4-(5-cyclopropyl-1H-pyrazol-3-ylamino)quinazolin-2-yl)(3-methylpiperazin-1-yl)methanone hydrochloride at 12.43 mg/kg, po measured upto 24 hrs by LC/MS/MS analysis; assay type: ADME, organism-based; design: route oral, dose 12.43 mg/kg, time <=24; conditions: in vivo
[17] = Half life in Wistar rat assessed as (R)-(6-chloro-4-(5-cyclopropyl-1H-pyrazol-3-ylamino)quinazolin-2-yl)(3-methylpiperazin-1-yl)methanone hydrochloride at 14.18 mg/kg, po measured upto 24 hrs by LC/MS/MS analysis; assay type: ADME, organism-based; conditions: in vivo
[18] = AUC in Wistar rat assessed as (R)-(6-chloro-4-(5-cyclopropyl-1H-pyrazol-3-ylamino)quinazolin-2-yl)(3-methylpiperazin-1-yl)methanone hydrochloride at 14.18 mg/kg, po measured upto 24 hrs by LC/MS/MS analysis; assay type: ADME, organism-based; design: route oral, dose 14.18 mg/kg, time <=24; conditions: in vivo
[19] = Cmax in Wistar rat assessed as (R)-(6-chloro-4-(5-cyclopropyl-1H-pyrazol-3-ylamino)quinazolin-2-yl)(3-methylpiperazin-1-yl)methanone hydrochloride at 14.18 mg/kg, po measured upto 24 hrs by LC/MS/MS analysis; assay type: ADME, organism-based; design: route oral, dose 14.18 mg/kg, time <=24; conditions: in vivo
[20] = Tmax in Wistar rat assessed as (R)-(6-chloro-4-(5-cyclopropyl-1H-pyrazol-3-ylamino)quinazolin-2-yl)(3-methylpiperazin-1-yl)methanone hydrochloride at 14.18 mg/kg, po measured upto 24 hrs by LC/MS/MS analysis; assay type: ADME, organism-based; conditions: in vivo
[21] = AUC (0 to infinity) in Wistar rat assessed as (R)-(6-chloro-4-(5-cyclopropyl-1H-pyrazol-3-ylamino)quinazolin-2-yl)(3-methylpiperazin-1-yl)methanone hydrochloride at 14.18 mg/kg, po measured upto 24 hrs by LC/MS/MS analysis; assay type: ADME, organism-based; design: route oral, dose 14.18 mg/kg, time <=24; conditions: in vivo
[22] = Tmax in Wistar rat at 10 mg/kg, po measured upto 24 hrs by LC/MS/MS analysis; assay type: ADME, organism-based; conditions: in vivo
[23] = AUC in Wistar rat at 2 mg/kg, iv measured upto 24 hrs by LC/MS/MS analysis; assay type: ADME, organism-based; design: route intravenous, dose 2 mg/kg, time <=24; conditions: in vivo
[24] = AUC (0 to t) in Wistar rat at 10 mg/kg, po measured upto 24 hrs by LC/MS/MS; assay type: ADME, organism-based; design: route oral, dose 10 mg/kg, time <=24; conditions: in vivo
[25] = AUC (0 to infinity) in Wistar rat at 10 mg/kg, po measured upto 24 hrs by LC/MS/MS analysis; assay type: ADME, organism-based; design: route oral, dose 10 mg/kg, time <=24; conditions: in vivo
[26] = AUC (0 to infinity) in Wistar rat at 2 mg/kg, iv measured upto 24 hrs by LC/MS/MS analysis; assay type: ADME, organism-based; design: route intravenous, dose 2 mg/kg, time <=24; conditions: in vivo
[27] = Volume of distribution in Wistar rat at 2 mg/kg, iv measured upto 24 hrs by LC/MS/MS analysis; assay type: ADME, organism-based; conditions: in vivo
[28] = Oral bioavailability in Wistar rat assessed as (R)-(6-chloro-4-(5-cyclopropyl-1H-pyrazol-3-ylamino)quinazolin-2-yl)(3-methylpiperazin-1-yl)methanone hydrochloride at 10 mg/kg measured upto 24 hrs by LC/MS/MS analysis; assay type: ADME, organism-based; conditions: in vivo
[29] = Half life in Wistar rat at 2 mg/kg, iv measured upto 24 hrs by LC/MS/MS analysis; assay type: ADME, organism-based; conditions: in vivo
[30] = Half life in Wistar rat at 10 mg/kg, po measured upto 24 hrs by LC/MS/MS analysis; assay type: ADME, organism-based; conditions: in vivo
[31] = Initial plasma concentration in Wistar rat at 2 mg/kg, iv measured upto 24 hrs by LC/MS/MS analysis; assay type: ADME, organism-based; conditions: in vivo
[32] = Clearance in Wistar rat at 2 mg/kg, iv measured upto 24 hrs by LC/MS/MS analysis; assay type: ADME, organism-based; conditions: in vivo
[33] = Cmax in Wistar rat at 10 mg/kg, po measured upto 24 hrs by LC/MS/MS analysis; assay type: ADME, organism-based; design: route oral, dose 10 mg/kg, time <=24; conditions: in vivo

SMILES	Drug metabolism [1]	remaining at 2 h [3]	remaining at 1 h [5]	remaining at 2 h [6]	Stability [2]	Stability [4]	further results
CC(OC(=O)C(C)C)OC(=O)N1CCN(C(=O)c2nc(Nc3cc(C4CC4)[nH]n3)c3cc(Cl)ccc3n2)C[C@H]1C (stereo not given in full)	78.8%	17.4%	11%	96.6%	62.5%	88.6%	AUC [7]: 0.05 µg·h/mL; AUC [8]: 0.0596 µg·h/mL; Cmax [9]: 0.0283 µg/mL; t1/2 [10]: 10.35 h; Tmax [11]: 4.98 min
CC(OC(=O)N1CCN(C(=O)c2nc(Nc3cc(C4CC4)[nH]n3)c3cc(Cl)ccc3n2)C[C@H]1C)OC(=O)C(C)(C)C (stereo not given in full)	46.3%	49.4%	66.3%	90.5%	92.2%	88.7%	t1/2 [17]: 8.378 h; AUC [18]: 0.0351 µg·h/mL; Cmax [19]: 0.0039 µg/mL; Tmax [20]: 8 h; AUC [21]: 0.0442 µg·h/mL
C[C@@H]1CN(C(=O)c2nc(Nc3cc(C4CC4)[nH]n3)c3cc(Cl)ccc3n2)CCN1C(=O)OCOC(=O)C(C)(C)C	94%	0%	47%	97.7%	83.9%	93%	AUC [7]: 0.0288 µg·h/mL; AUC [8]: 0.0676 µg·h/mL; Cmax [9]: 0.0028 µg/mL; t1/2 [10]: 30.204 h; Tmax [11]: 4.98 min
C[C@@H]1CN(C(=O)c2nc(Nc3cc(C4CC4)[nH]n3)c3cc(Cl)ccc3n2)CCN1C(=O)OCc1ccccc1	13.5%	86.2%	45.6%	97.7%	84.7%	93.6%	–
C[C@@H]1CN(C(=O)c2nc(Nc3cc(C4CC4)[nH]n3)c3cc(Cl)ccc3n2)CCN1.Cl	–	97.4%	53.9%	–	–	–	Tmax [22]: 4.98 min; AUC at 24 h [23]: 1.11 µg·h/mL; AUC(0-t) at 24 h [24]: 0.106 µg·h/mL; AUC(0-inf) [25]: 0.108 µg·h/mL; AUC(0-inf) [26]: 1.12 µg·h/mL; Vd [27]: 12.4 L/kg; F [28]: 1.92%; half-life [29]: 4.8 h; half-life [30]: 3.9 h; C0 [31]: 4.52 µg/mL; clearance [32]: 1.78 L/h/kg; Cmax [33]: 0.0149 µg/mL

More lines, main results first:

Drug metabolism [1]	remaining at 2 h [3]	remaining at 1 h [5]	remaining at 2 h [6]	SMILES	Stability [2]	Stability [4]	further results
18.7%	78.5%	78.6%	99%	CC(C)OC(=O)N1CCN(C(=O)c2nc(Nc3cc(C4CC4)[nH]n3)c3cc(Cl)ccc3n2)C[C@H]1C	70.2%	94.4%	–
13.4%	84.6%	34.2%	100%	COC(=O)N1CCN(C(=O)c2nc(Nc3cc(C4CC4)[nH]n3)c3cc(Cl)ccc3n2)C[C@H]1C	95.2%	91.5%	–
25.7%	73.7%	61.1%	99%	CC(C)COC(=O)N1CCN(C(=O)c2nc(Nc3cc(C4CC4)[nH]n3)c3cc(Cl)ccc3n2)C[C@H]1C	70.2%	88.8%	t1/2 [12]: 16.723 h; Tmax [13]: 1.5 h; AUC [14]: 0.0635 µg·h/mL; Cmax [15]: 0.0074 µg/mL; AUC [16]: 0.1112 µg·h/mL
16.3%	79%	78.9%	98.7%	C[C@@H]1CN(C(=O)c2nc(Nc3cc(C4CC4)[nH]n3)c3cc(Cl)ccc3n2)CCN1C(=O)OCC(Cl)(Cl)Cl	88.5%	88.2%	–
20.7%	73.7%	71.3%	99.1%	C[C@@H]1CN(C(=O)c2nc(Nc3cc(C4CC4)[nH]n3)c3cc(Cl)ccc3n2)CCN1C(=O)OC(C)(C)C	37.1%	90.2%	–
14.8%	85.3%	48.5%	97.7%	CCOC(=O)N1CCN(C(=O)c2nc(Nc3cc(C4CC4)[nH]n3)c3cc(Cl)ccc3n2)C[C@H]1C	89.5%	92.9%	–
21.4%	74.4%	63.9%	99.8%	CCCCCOC(=O)N1CCN(C(=O)c2nc(Nc3cc(C4CC4)[nH]n3)c3cc(Cl)ccc3n2)C[C@H]1C	88.4%	90.7%	–
